Laboratory results reported in patent publication US20260150841A1, “PYRIDINE COMPOUNDS FOR COMBATTING DIHYDROOROTATE-DEHYDROGENASE INHIBITOR-RESISTANT PHYTOPATHOGENIC FUNGI” (priority 2022, published 2026).
In brackets after ≈: the same amount, converted by molar mass. Read-outs that look alike come from different tables or passages of the source.

Assays:
Assay type in all cases: cell-based
[1] = test system: Sclerotinia sclerotiorum (sensitive, wild-type); assay: Activity against Sclerotinia sclerotiorum in tissue culture plate assay with mycelial plugs, wild type; details: 168 h, % growth after 7 days at 18° C., read-out: Absolute IC50, wild type
Description: Fungal strains used: • a) Sclerotinia sclerotiorum (sensitive, wild-type) • b) Mutants of Sclerotinia sclerotiorum
Pure cultures are grown on DOB-agar medium, (3.4 g/l YNB (Becton Dickinson), 10 g/l Ammoniumsulfat, 40 g/l Glucose) for 5-7 days at 18° C. Mycelial plugs (6 mm diame-ter) taken from the margin of the colonies are used as inoculum for the sensitivity test. 500 μl fungicide-amended DOB medium (3.4 g/l YNB (Becton Dickinson), 10 g/l Ammoniumsulfat, 40 g/l Glucose, adjusted to pH 7) are added to each well of 24-well tissue culture plates. Each well is then inoculated with a mycelial plug, with the myce-lium surface up. Two replicate wells are used for each isolate and fungicide concentration. Growth is assed after 7 days incubation at 18° C. in the dark by estimating % growth in the well. IC50-values (concentration of test compound resulting in 50% inhibition of fungal growth) were calculated from the resulting dose-response for each compound and strain.

[2] = test system: Botrytis cinerea mutant G111E; assay: Activity against Botrytis cinerea in the microtiter test, mutant G111E; details: for IC50: Botrytis cinerea, MUTANTG111E, 168 h, read-out: Absolute IC50, G111E, Botrytis cinerea mutant G111E
Source text: (§1) The active substances were formulated separately as a stock solution in dimethyl sulfoxide (DMSO) at a concentration of 10 000 ppm.
(§2) Spontaneous mutants were selected by plating out B. cinerea spores (in the range of 10^7-10^8) on DOB agar plates (3.4 g/l YNB (Becton Dickinson), 10 g/l Ammoniumsulfat, 40 g/l Glucose, 20 g/l Agar), amended with different lethal concentrations of active ingredient. After 7-14 days growing colonies were transferred to DOB agar plates, amended with the same lethal concentrations of active ingredient and then further propagated on Oatmeal agar medium (50 g/l Oatmeal agar (Sigma), 15 g/l Agar (Difco) for sensitivity testing.
(§3) Fungal strains used: • a) Botrytis cinerea (sensitive, wild-type) • b) Various mutants of Botrytis cinerea
(§4) The spores of Botrytis cinerea were harvested with a cotton swab from an Oatmeal agar plate (50 g/l Oatmealagar (Sigma, Art.O-3506), 15 g/l agar, (Difco) and this is dipped in 3 ml of double concentrated DOB-medium (3.4 g/l YNB (Becton Dickinson), 10 g/l Ammoniumsulfat, 40 g/l Glucose, adjusted to pH 7) and the spore suspension is adjusted to a spore density of 3.2×10^4 spores/ml. The compound solutions were diluted from stock solution in (dimethylsulfoxide) DMSO in several steps with sterile deionized water before use. High test concentrations were 50 mg/L (ppm) or 31 mg/L (ppm). Compound solutions were transferred into empty microplates and filled up with an equal amount of spore suspension.
(§5) The antifungal activity was determined by measuring the turbidity of a culture in 96-well microplates in the presence of test compounds after 7 days incubation at 620 nm. A blank value for each concentration (growth media+compound, without spores) are subtracted from the spore suspension. The relative antifungal activity was calculated by comparing the effect of the test compounds with the effect of a DMSO control The results are shown in Table IV (for compounds of general formula I.A), VI (for compounds of general formula I.B), and VIII (for compounds of general formula I.C).
(§6) A compound showing an IC50 (MUT) above the IC50 (WT) and showing an IC50 (MUT) to IC50 (WT) ratio being in a range above 100 is considered unsuitable (“I”) as DHODH inhibitor.
(§7) The absolute IC50-values (concentration of test compound resulting in 50% inhibition of fungal growth) were calculated from the resulting dose-response for each compound and strain.

[3] = test system: Botrytis cinerea (sensitive, wild-type); assay: Activity against Botrytis cinerea in the microtiter test, wild type; details: turbidity at 620 nm after 7 days; for IC50: 168 h, read-out: Absolute IC50, wild type
Description: as §1, §3, §4, §5, §7

[4] = test system: Botrytis cinerea mutant G111V; assay: Activity against Botrytis cinerea in the microtiter test, mutant G111V; details: for IC50: Botrytis cinerea, MUTANTG111V, 168 h, read-out: Absolute IC50, G111V, Botrytis cinerea mutant G111V
Source text: as §1, §2, §3, §4, §5, §6, §7

[5] = test system: Botrytis cinerea mutant Y208H; assay: Activity against Botrytis cinerea in the microtiter test, mutant Y208H; details: for IC50: Botrytis cinerea, MUTANTY208H, 168 h, read-out: Absolute IC50, Y208H, Botrytis cinerea mutant Y208H
Source text: as §1, §2, §3, §4, §5, §6, §7

[6] = test system: Botrytis cinerea mutant V195F; assay: Activity against Botrytis cinerea in the microtiter test, mutant V195F; details: for IC50: Botrytis cinerea, MUTANTV195F, 168 h, read-out: Absolute IC50, V195F, Botrytis cinerea mutant V195F
Source text: as §1, §2, §3, §4, §5, §6, §7

[7] = test system: Botrytis cinerea mutant H108P; assay: Activity against Botrytis cinerea in the microtiter test, mutant H108P; details: for IC50: Botrytis cinerea, MUTANTH108P, 168 h, read-out: Absolute IC50, H108P, Botrytis cinerea mutant H108P
Source text: as §1, §2, §3, §4, §5, §6, §7

[8] = turbidity at 620 nm after 7 days

CN1c2c(F)cccc2C(c2cnc3c(F)cccc3c2)=NC1(C)C
IC50 [1]: 0.03 µg/mL (≈ 0.0889 µM)

4-[6-(difluoromethyl)-5-methyl-3-pyridyl]-8-fluoro-2,2-dimethyl-1H-quinazoline [compound 44]
Absolute IC50, G111E ([2]; Botrytis cinerea mutant G111E, turbidity at 620 nm after 7 days): 0.08 ppm
Absolute IC50, wild type [3]: 0.01 ppm
Absolute IC50, G111V ([4]; Botrytis cinerea mutant G111V, turbidity at 620 nm after 7 days): 0.73 ppm
Absolute IC50, Y208H ([5]; Botrytis cinerea mutant Y208H, turbidity at 620 nm after 7 days): 1.64 ppm
Absolute IC50, V195F ([6]; Botrytis cinerea mutant V195F, turbidity at 620 nm after 7 days): 0.03 ppm
Absolute IC50, H108P ([7]; Botrytis cinerea mutant H108P, turbidity at 620 nm after 7 days): 0.50 ppm

Cc1cc(C2=NC3(CCC(C)(C)C3)Oc3ccccc32)cnc1C (stereo not shown) [Ex 4]
IC50 [1]: 8.45 µg/mL (≈ 26.4 µM)

Cc1cc(C2=NC(C)(C)Oc3ccccc32)cnc1C [Ex 6]
IC50 [1]: 0.08 µg/mL (≈ 0.3 µM)

CCC1(CC)N=C(c2cnc(C)c(C)c2)c2ccccc2O1 [Ex 7]
IC50 [1]: 0.23 µg/mL (≈ 0.781 µM)

Cc1cc(C2=NC3(CCC3)Oc3c2cccc3C(C)(C)C)cnc1C [Ex-14]
Relative antifungal activity expressed as IC50, G111E ([2]; {}): AA AA AA AA AA
Relative antifungal activity expressed as IC50, G111V ([4]; {}): AA AA AA AA AA
Relative antifungal activity expressed as IC50, Y208H ([5]; {}): AA AA AA AA AA
Relative antifungal activity expressed as IC50, V195F ([6]; {}): AA AA AA AA AA

Cc1cc(C2=NC(C)(C)Oc3c2cccc3C(C)(C)C)cnc1C [Ex-15]
Relative antifungal activity expressed as IC50, G111V ([4]; {}): AA AA AA
Relative antifungal activity expressed as IC50, V195F ([6]; {}): AA AA AA

Cc1cc(C2=NC(C(C)(C)C)Oc3ccccc32)cnc1C (stereo not shown) [Ex-18]
Relative antifungal activity expressed as IC50, G111E ([2]; {}): AA AA AA AA
Relative antifungal activity expressed as IC50, G111V ([4]; {}): AA AA AA AA
Relative antifungal activity expressed as IC50, V195F ([6]; {}): AA AA AA AA

Cc1cc(C2=NC3(CCCC3)Oc3ccccc32)cnc1C(F)F [Ex-24]
IC50 [2, 8]: 15.3 µg/mL (≈ 46.6 µM)
IC50 [3]: 0.35 µg/mL (≈ 1.07 µM)
IC50 [4, 8]: 1.31 µg/mL (≈ 3.99 µM)
IC50 [6, 8]: 0.69 µg/mL (≈ 2.1 µM)
IC50 [7, 8]: 0.98 µg/mL (≈ 2.98 µM)

Cc1cc(C2=NC3(CCC3)Oc3ccccc32)cnc1C(F)F [Ex-25, 4-[6-(difluoromethyl)-5-methyl-3-pyridyl]spiro[1,3-benzoxazine-2,1′-cyclobutane]]
IC50 [3]: 0.05 µg/mL (≈ 0.159 µM)
IC50 [4, 8]: 0.03 µg/mL (≈ 0.0954 µM)
IC50 [5, 8]: 0.28 µg/mL (≈ 0.891 µM)
IC50 [6, 8]: 0.08 µg/mL (≈ 0.255 µM)
IC50 [7, 8]: 0.02 µg/mL (≈ 0.0636 µM)

Cc1cc(C2=NC3(COC3)Oc3ccccc32)cnc1C [Ex-26]
Relative antifungal activity expressed as IC50, G111E ([2]; {}): AA AA AA AA
Relative antifungal activity expressed as IC50, G111V ([4]; {}): AA AA AA AA
Relative antifungal activity expressed as IC50, V195F ([6]; {}): AA AA AA AA

Cc1cc(C2=NC3(CCC3)Oc3c(F)cccc32)cnc1C [Ex-29]
IC50 [2, 8]: 2.34 µg/mL (≈ 7.9 µM)
IC50 ([3]; Botrytis cinerea): 0.02 µg/mL (≈ 0.0675 µM)
IC50 [4, 8]: 0.04 µg/mL (≈ 0.135 µM)
IC50 [5, 8]: 0.93 µg/mL (≈ 3.14 µM)
IC50 [6, 8]: 0.02 µg/mL (≈ 0.0675 µM)
IC50 [7, 8]: 0.02 µg/mL (≈ 0.0675 µM)

Cc1cc(C2=NC3(CCC3)Oc3ccccc32)cnc1C [Ex-32]
Absolute IC50, G111E ([2]; {}): 2.34 ppm
IC50 ([3]; Botrytis cinerea): 0.12 µg/mL (≈ 0.431 µM)
Absolute IC50, G111V ([4]; {}): 2.85 ppm
IC50 [5, 8]: 1.23 µg/mL (≈ 4.42 µM)
Absolute IC50, V195F ([6]; {}): 0.13 ppm
Absolute IC50, H108P ([7]; {}): 0.07 ppm

COc1ccc2c(c1)OC1(CCC1)N=C2c1cnc(C(F)F)c(C)c1 [Ex-37]
IC50 [2, 8]: 0.54 µg/mL (≈ 1.57 µM)
IC50 [3]: 0.03 µg/mL (≈ 0.0871 µM)
IC50 [4, 8]: 0.09 µg/mL (≈ 0.261 µM)
IC50 [6, 8]: 0.11 µg/mL (≈ 0.319 µM)
IC50 [7, 8]: 0.06 µg/mL (≈ 0.174 µM)

Cc1cc(C2=NC(C)(C)Nc3ccccc32)cnc1C [compound 39]
Relative antifungal activity expressed as IC50, G111E ([2]; {}): AA AA AA AA
Relative antifungal activity expressed as IC50, G111V ([4]; {}): AA AA AA AA
Relative antifungal activity expressed as IC50, V195F ([6]; {}): AA AA AA AA

Cc1ccc(S(=O)(=O)N2c3ccccc3C(c3cnc(C)c(C)c3)=NC2(C)C)cc1 [compound 42]
Relative antifungal activity expressed as IC50, G111E ([2]; {}): AA AA AA AA
Relative antifungal activity expressed as IC50, G111V ([4]; {}): AA AA AA AA
Relative antifungal activity expressed as IC50, V195F ([6]; {}): AA AA AA AA

CCN1c2c(F)cccc2C(c2cnc(C(F)F)c(C)c2)=NC1(C)C [compound 45]
IC50 [2, 8]: 0.57 µg/mL (≈ 1.64 µM)
IC50 [3]: 0.01 µg/mL (≈ 0.0288 µM)
IC50 [4, 8]: 0.96 µg/mL (≈ 2.76 µM)
IC50 [5, 8]: 0.27 µg/mL (≈ 0.777 µM)
IC50 [6, 8]: 0.02 µg/mL (≈ 0.0576 µM)
IC50 [7, 8]: 0.4 µg/mL (≈ 1.15 µM)
